Data set [1] concerns previously treated squamous-cell lung cancer. To be noted: cited from earlier work; for Median survival time (MST): CheckMate-017, primary outcome; for Disease progression rate / Response rate: CheckMate-017.
Data set [2] deals with previously treated non-small-cell lung cancer. To be noted: cited from earlier work.
The test system of data set [3] is previously treated non-squamous non-small-cell lung cancer. To be noted: cited from earlier work; for Median survival time (MST): CheckMate-057, primary outcome; for Disease progression rate / Response rate: CheckMate-057.
Data set [4] relates to previously treated non-small-cell lung cancer. The settings on record: cited from earlier work; for MST: POPLAR.
Data set [5] can be described thus: Repeated administration toxicity trial for 10 weeks into the dorsal skin. To be noted: both sexes, Sprague-Dawley (Crl:CD(SD)), rat, in vivo; both males and females, 10 weeks repeated administration; read-out: No-observed-adverse-effect level. The protocol: A toxicity trial was performed in which a mixture of SLP1 and SLP2 was repeatedly administered for 10 weeks (intermittently administered five times every 14 days) with an adjuvant into the dorsal skin of Sprague-Dawley rats (Crl:CD(SD), 6-week-old at the start of administration, a group of 10 males and 10 females).
The following two doses were adopted as the doses of the test substances: 0.2 mg/kg (SLP1: 0.2 mg/kg+SLP2: 0.2 mg/kg) and 2 mg/kg (SLP1: 2 mg/kg+SLP2: 2 mg/kg). SLP1 and SLP2 dissolved in water for injection and Picibanil were mixed with an equal amount of an oil adjuvant MONTANIDE ISA 51 VG (ISA51) to provide an emulsion, which was administered into the dorsal skin in an administration volume of 1 mL/kg. Further, a vehicle control group to be administered an emulsion of water for injection and Picibanil with ISA51 and a physiological saline control group to be administered physiological saline were formed.
During the administration period, general condition observation, body weight measurement, and food intake measurement were performed, and urine examination and ophthalmologic examination were performed in week 10 of the administration. At the end of the administration period, hematological examination, blood chemical examination, an autopsy, organ weight measurement, and histopathological examination were performed.

Setting [6] is: KEYNOTE-010, tumor PD-L1 expression of 1% or more.
Setting [7] is: KEYNOTE-010, tumor PD-L1 expression of 50% or more.

Read-outs that look alike come from different tables or passages of the source. Where no end group is shown, it is not given here.

Take `CC(=O)O[C@@]12CO[C@@H]1C[C@H](O)[C@@]1(C)C(=O)[C@H](O)C3=C(C)[C@@H](OC(=O)[C@H](O)[C@@H](NC(=O)OC(C)(C)C)c4ccccc4)C[C@@](O)([C@@H](OC(=O)c4ccccc4)[C@H]21)C3(C)C` [docetaxel]: the entries for the “Median survival time (MST)” value in data set [1] and in data set [3] were 6.0 months and 9.4 months, respectively. Moreover, the Disease progression rate in data set [1] is on record as 30%; in data set [3], 29%. The Response rate is reported as 31% in data set [1]; 9.3% in data set [2] (setting [6]); 7.9% in data set [2] (setting [7]); 12% in data set [3]; “about 15%” in data set [4] (group expressing no PD-L1 in the cancer immune microenvironment). For the same compound, the results for the MST in data set [2] (setting [6]) and in data set [4] were 8.5 months and 9.7 months, respectively.
Take ISQTPGINLDLGSGVKVKIIPKEEH [SLP2]: the NOAEL at 1680 h in data set [5] was > 2 mg/kg.
Still for that read-out and setting: the figure for NQQLKVGILHLGSRQKKIRIQLRSQ [SLP1] is > 2 mg/kg.
atezolizumab: the MST in data set [4] is recorded as 12.6 months. In addition, the Response rate in data set [4] (group highly expressing PD-L1 in the cancer immune microenvironment) was 38%.
As for nivolumab, in data set [1], the “Median survival time (MST)” value is reported as 9.2 months, the Disease progression rate is 33% and the Response rate is 36%. In data set [3], the “Median survival time (MST)” value is recorded as 12.2 months, the Disease progression rate was 44% and the Response rate was 19%.
For pembrolizumab, in data set [2] (setting [6]), the “Progression-free survival (PFS) as compared to docetaxel group” value is listed as “No significant difference”. In addition, the “PFS as compared to docetaxel group” value in data set [2] (setting [7]) is given as “significantly improved”.
